Source: publication PMC12251161, “Crucian Carp-Derived ACE-Inhibitory Peptides with In Vivo Antihypertensive Activity: Insights into Bioactivity, Mechanism, and Safety” (Molecules, 2025)
Where a SMILES comes first, the peptide text is derived from it. [ ]: non-standard residue; d: D form. Hyp = O=C(O)[C@@H]1C[C@@H](O)CN1

How the values were obtained:
[1] = biological target: T1, ACE (from rabbit lung, EC 3.4.15.1) (Oryctolagus cuniculus, UniProt P12822); assay: ACE-inhibitory activity assay (FAPGG substrate, spectrophotometric); format: biochemical; conditions: synthetic peptides; FAPGG 1 mmol/L, 80 mM HEPES, 0.3 M NaCl, pH 8.3, 37 °C; triplicate, sigmoidal dose–response fit; read-out: IC₅₀ ACE inhibition
T1 construct: ACE (from rabbit lung, EC 3.4.15.1); purchased Sigma-Aldrich Co. (St. Louis, MO, USA); host or cells: rabbit lung tissue
T1 sequence (P12822 34-1310): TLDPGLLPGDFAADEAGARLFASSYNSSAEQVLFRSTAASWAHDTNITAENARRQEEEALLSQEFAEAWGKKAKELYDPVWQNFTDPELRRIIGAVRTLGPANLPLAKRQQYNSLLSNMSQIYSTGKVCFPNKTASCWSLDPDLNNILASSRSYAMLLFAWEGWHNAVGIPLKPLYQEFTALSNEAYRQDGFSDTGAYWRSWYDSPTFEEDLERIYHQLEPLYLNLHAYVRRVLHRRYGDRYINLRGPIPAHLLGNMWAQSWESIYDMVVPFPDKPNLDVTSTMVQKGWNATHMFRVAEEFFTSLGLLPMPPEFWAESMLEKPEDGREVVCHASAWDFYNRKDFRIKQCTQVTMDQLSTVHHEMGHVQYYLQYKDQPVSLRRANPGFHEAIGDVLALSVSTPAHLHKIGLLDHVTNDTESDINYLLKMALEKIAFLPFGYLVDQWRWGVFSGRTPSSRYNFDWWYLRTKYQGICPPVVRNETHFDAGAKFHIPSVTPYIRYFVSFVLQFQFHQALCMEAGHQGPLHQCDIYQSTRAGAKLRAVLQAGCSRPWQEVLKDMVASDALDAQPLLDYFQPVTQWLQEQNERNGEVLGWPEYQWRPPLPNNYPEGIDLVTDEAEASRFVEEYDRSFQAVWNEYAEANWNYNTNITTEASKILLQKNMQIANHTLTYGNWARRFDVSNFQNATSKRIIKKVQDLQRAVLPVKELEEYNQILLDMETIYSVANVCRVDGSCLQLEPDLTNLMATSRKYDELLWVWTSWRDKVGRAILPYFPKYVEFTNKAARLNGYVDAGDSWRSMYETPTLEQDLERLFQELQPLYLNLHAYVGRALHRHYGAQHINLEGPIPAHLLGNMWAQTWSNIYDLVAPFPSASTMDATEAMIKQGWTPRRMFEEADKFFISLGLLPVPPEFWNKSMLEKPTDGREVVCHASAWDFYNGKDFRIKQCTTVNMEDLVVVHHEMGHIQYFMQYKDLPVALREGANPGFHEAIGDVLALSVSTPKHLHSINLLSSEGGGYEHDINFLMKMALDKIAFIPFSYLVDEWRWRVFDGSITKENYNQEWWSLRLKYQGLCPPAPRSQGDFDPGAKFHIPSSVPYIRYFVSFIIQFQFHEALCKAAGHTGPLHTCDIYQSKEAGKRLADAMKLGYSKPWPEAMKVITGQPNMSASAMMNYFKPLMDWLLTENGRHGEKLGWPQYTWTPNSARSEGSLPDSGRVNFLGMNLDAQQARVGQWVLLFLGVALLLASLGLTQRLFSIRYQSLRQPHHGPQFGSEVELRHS
Procedure: All other chemicals were of analytical grade.
All assays were conducted in triplicate.

[2] = system: BALB/c mice; assay: 90-day oral safety: mortality, clinical signs, body weight; format: in vivo; conditions: 50 mg/kg/day oral, 90 days, male and female
Procedure: (§1) A total of 40 healthy 7-week-old BALB/c mice (20 males and 20 non-pregnant females), with body weights within ±15% of the cohort mean, were obtained from Yangzhou University. All animals underwent a 7-day acclimation period under specific pathogen-free conditions prior to the experiment. Mice were housed under standard laboratory conditions: ambient temperature of 20–26 °C, relative humidity of 40–70%, and a 12 h light/dark cycle. General appearance, behavior, food intake, and body weight were monitored daily throughout the study. To evaluate the potential subchronic toxicity of the synthetic GA-Hyp-GAR peptide, a 90-day oral administration study was conducted. Mice were randomly divided into two groups (n = 10 males and 10 females per group): a normal group and a GA-Hyp-GAR-treated group receiving 50 mg/kg/day via daily intragastric gavage. The normal group received an equivalent volume of ultrapure water via the same route. After 90 consecutive days of treatment, all animals were anesthetized and euthanized 24 h after the final dose. […] Organ coefficients (organ weight/body weight × 100%) were calculated to assess potential physiological or pathological effects associated with long-term GA-Hyp-GAR exposure. […]

[3] = system: BALB/c mice; assay: 90-day oral safety: hematological parameters; format: in vivo; parameters: Red Cell Distribution Width—CV: unit not given here; conditions: 50 mg/kg/day oral, 90 days
Procedure: (§2) A total of 40 healthy 7-week-old BALB/c mice (20 males and 20 non-pregnant females), with body weights within ±15% of the cohort mean, were obtained from Yangzhou University. All animals underwent a 7-day acclimation period under specific pathogen-free conditions prior to the experiment. Mice were housed under standard laboratory conditions: ambient temperature of 20–26 °C, relative humidity of 40–70%, and a 12 h light/dark cycle. General appearance, behavior, food intake, and body weight were monitored daily throughout the study. To evaluate the potential subchronic toxicity of the synthetic GA-Hyp-GAR peptide, a 90-day oral administration study was conducted. Mice were randomly divided into two groups (n = 10 males and 10 females per group): a normal group and a GA-Hyp-GAR-treated group receiving 50 mg/kg/day via daily intragastric gavage. The normal group received an equivalent volume of ultrapure water via the same route. After 90 consecutive days of treatment, all animals were anesthetized and euthanized 24 h after the final dose. Blood samples were collected via cardiac puncture for hematological and serum biochemical analyses, performed using a Hitachi 3500 fully automated biochemical analyzer (Hitachi High-Tech Science Corp., Tokyo, Japan). Major organs—including the heart, liver, spleen, lungs, and kidneys—were excised, blotted dry, and weighed. Organ coefficients (organ weight/body weight × 100%) were calculated to assess potential physiological or pathological effects associated with long-term GA-Hyp-GAR exposure. Tissues were fixed in 4% paraformaldehyde, embedded in paraffin, sectioned, and stained with hematoxylin and eosin for histopathological evaluation. All animal experiments were conducted in accordance with the ethical guidelines of the Animal Ethics Committee of Nanjing Agricultural University, which approved the study protocol (Protocol No. NJAU-20250120-35).

[4] = system: BALB/c mice; assay: 90-day oral safety: serum biochemical parameters; format: in vivo; conditions: 50 mg/kg/day oral, 90 days
Procedure: as §2

[5] = system: BALB/c mice; assay: 90-day oral safety: organ coefficients; format: in vivo; conditions: 50 mg/kg/day oral, 90 days; liver, kidneys, spleen, lungs, heart
Procedure: as §1

[6] = system: BALB/c mice; assay: 90-day oral safety: histopathology (H&E); format: in vivo; conditions: 50 mg/kg/day oral, 90 days, liver, kidneys, spleen, lungs, heart
Procedure: as §1

[7] = system: angiotensin II; assay: Angiotensin II level in SHRs (ELISA); format: in vivo, spontaneously hypertensive rats (SHRs); conditions: captopril 12 mg/kg oral, n = 6
Source text: (§3) Formic acid (≥99%, LC-MS grade), 4-(2-hydroxyethyl) piperazine-1-ethanesulfonic acid (HEPES, ≥99%, ACS grade), ACE (from rabbit lung, EC 3.4.15.1), acetonitrile (ACN, ≥99%, LC-MS grade), and N-[3-(2-Furyl) acryloyl]-Phe-Gly-Gly (FAPGG, ≥99%, ACS grade) were obtained from Sigma-Aldrich Co. (St. Louis, MO, USA). An enzyme-linked immunosorbent assay (ELISA) kit for AngII (catalog no. D731188-0048) was purchased from Sangon Biotech (Shanghai, China). ELISA kits for endothelial nitric oxide synthase (eNOS, catalog no. JL21190-48T) and BK (catalog no. JL21045-48T) were obtained from JONLN Biotechnology Co., Ltd. (Shanghai, China). Nitric Oxide (NO) assay kit (catalog no. A013-2-1) was purchased from Nanjing Jiancheng Bioengineering Institute (Nanjing, Jiangsu, China). All other chemicals were of analytical grade. […]
(§4) Systolic blood pressure (SBP) was measured using a non-invasive blood pressure monitoring system (BP-2000, Softron Co., Tokyo, Japan) at baseline (0 h) and at 2, 4, 6, 8, and 12 h after administration to evaluate the antihypertensive effects of the test peptides, following the method described by Kurita. The levels of AngII, eNOS, and BK were measured using commercial ELISA kits, while NO levels were determined using the Microwell plate method with a specialized assay kit.

[8] = system: endothelial nitric oxide synthase (eNOS); assay: Endothelial nitric oxide synthase level in SHRs (ELISA); format: in vivo, spontaneously hypertensive rats (SHRs); conditions: oral, vs model group
Source text: as §3, §4

[9] = system: nitric oxide (NO); assay: Nitric oxide level in SHRs (assay kit); format: in vivo, spontaneously hypertensive rats (SHRs); conditions: oral, vs model group
Source text: as §3, §4

C[C@H](NC(=O)CNC(=O)[C@@H]1C[C@@H](O)CN1C(=O)[C@H](C)NC(=O)CN)C(=O)N[C@@H](CCCNC(=N)N)C(=O)O [GA-Hyp-GAR, Gly-Ala-hydroxyproline-Gly-Ala-Arg] (H-GA[Hyp]GAR-OH) was tested, and the IC50 [1] was 4 µM, the body weight [2] was “Body weight increased steadily in all groups over the study period” and the “mortality and signs of toxicity” value [2] was “no mortality or signs of toxicity were observed”. The “hematological parameters in words” value ([3]; vs control) was “no statistically significant differences (p > 0.05) between the treated and control groups in key hematological parameters”, the Plateletcrit ([3]; normal 0.16 ± 0.27, p >0.9999) was 0.16 ± 0.26% and the “Mean Platelet Volume” value ([3]; normal 2.05 ± 3.45, p 0.9798) was 2.09 ± 3.52 fL. The “Platelet Distribution Width” value ([3]; normal 2.91 ± 4.95, p 0.9364) was 3.09 ± 5.00 fL, the “Platelet Large Cell Ratio” value ([3]; normal 3.62 ± 6.29, p 0.9916) was 3.65 ± 6.26% and the “White Blood Cells” value ([3]; normal 4.28 ± 1.72, p 0.3610) was 3.66 ± 1.19 ×10⁹/L. The “Red Blood Cells” value ([3]; normal 10.71 ± 0.83, p 0.2451) was 11.13 ± 0.73 ×10^12/L, the “Mean Corpuscular Hemoglobin” value ([3]; normal 15.65 ± 0.32, p 0.7101) was 15.70 ± 0.27 pg and the “Red Cell Distribution Width—CV” value ([3]; normal 26.58 ± 1.94, p 0.4260) was 25.95 ± 1.49. The “Red Cell Distribution Width—SD” value ([3]; normal 32.81 ± 11.68, p 0.8517) was 31.99 ± 7.11 fL, the Hemoglobin ([3]; normal 167.60 ± 13.10, p 0.1978) was 174.70 ± 10.50 g/L and the “Mean Corpuscular Hemoglobin Concentration” value ([3]; normal 341.80 ± 15.10, p 0.7101) was 355.90 ± 5.50 g/L. For the same molecule, the “Platelet Count” value ([3]; normal 675.50 ± 200.50, p 0.9198) was 683.40 ± 140.00 ×10⁹/L, the “serum biochemical markers of hepatic and renal function in words” value ([4]; vs normal group) was “no significant differences (p > 0.05) between the treated and normal groups in markers of hepatic function” and the Triglycerides ([4]; normal 1.94 ± 0.40, p 0.0526) was 2.35 ± 0.48 mmol/L. The “Total Cholesterol” value ([4]; normal 2.47 ± 0.23, p 0.1796) was 2.32 ± 0.25 mmol/L, the “Aspartate Aminotransferase” value ([4]; normal 2.48 ± 1.03, p 0.9294) was 2.44 ± 0.96 µkat/L and the “Alkaline Phosphatase” value ([4]; normal 3.32 ± 0.65, p 0.2065) was 2.99 ± 0.46 µkat/L. The Glucose ([4]; normal 5.69 ± 3.38, p 0.1654) was 7.79 ± 3.11 mmol/L, the “Blood Urea Nitrogen” value ([4]; normal 7.81 ± 1.53, p 0.6237) was 8.13 ± 1.33 mmol/L and the Creatinine ([4]; normal 14.70 ± 5.80, p 0.2390) was 18.13 ± 6.76 µmol/L. The Albumin ([4]; normal 35.24 ± 1.32, p 0.5021) was 35.60 ± 1.01 g/L, the “Total Protein” value ([4]; normal 58.21 ± 3.77, p 0.9711) was 58.16 ± 2.09 g/L and the “Alanine Aminotransferase” value ([4]; normal 684.30 ± 288.39, p 0.8986) was 701.81 ± 316.56 nkat/L. For the same molecule, the organ coefficients [5] was “organ coefficients did not differ significantly between the GA-Hyp-GAR-treated and normal groups (p > 0.05)” and the “histopathology of major organs” value [6] was “no observable pathological changes in any of the examined organs”.
C[C@H](NC(=O)CNC(=O)[C@@H]1C[C@@H](O)CN1)C(=O)N[C@@H](CCCNC(=N)N)C(=O)O [Hyp-GAR, Hydroxyproline-Gly-Ala-Arg] (H-[Hyp]GAR-OH) was tested, and the IC50 [1] was 12.2 µM.
C[C@H](CS)C(=O)N1CCC[C@H]1C(=O)O [captopril] was tested, and the AngII concentration [7] was 220.16 ± 31.67 pg/mL, the “eNOS levels in words” value [8] was “significantly restored both eNOS and NO levels” and the “NO levels in words” value [9] was “significantly restored both eNOS and NO levels”.
